From ChEMBL document CHEMBL2029243, “Potent and selective pyrazolo[1,5-a]pyrimidine based inhibitors of B-Raf(V600E) kinase with favorable physicochemical and pharmacokinetic properties” (Bioorg Med Chem Lett, 2012)
Converted amounts (≈) assume the structure as drawn.

Assays:
[1] = molecular target: T1, Serine/threonine-protein kinase B-raf (Homo sapiens, UniProt P15056, V600E)
[2] = molecular target: T1, Serine/threonine-protein kinase B-raf; remark: listed apart in the source
[3] = Aqueous solubility of the compound at pH 1.2; type: physicochemical; conditions: buffer
[4] = AUC in mouse at 30 mg/kg, po administered with 1% methylcellulose/0.5% Tween 80 in water; type: ADME, organism-based; design: dose 30 mg/kg, route oral; conditions: in vivo
[5] = Clearance in mouse at […], iv; type: ADME, organism-based; design: dose 2.5 mg/kg, route intravenous; conditions: in vivo
[6] = Volume of distribution in mouse at […], iv and 30 mg/kg, po; type: ADME, organism-based; conditions: in vivo
[7] = AUC in mouse at 30 mg/kg, po administered with 40/10/50 volume of PEG400/EtOH/H2O solution; type: ADME, organism-based; design: dose 30 mg/kg, route oral; conditions: plasma
physchem [8] = conditions: buffer, pH 7.4
Description: Aqueous solubility of the compound at pH 7.4

physchem [9] = conditions: buffer, pH 6.5
Description: Aqueous solubility of the compound at pH 6.5

in vitro = conditions: human, Caco-2
Description: Permeability across human Caco2 cells

[10] = Oral bioavailability in mouse at 30 mg/kg; type: ADME, organism-based; conditions: in vivo

T1 sequence (P15056 2-766 V600E limits assumed): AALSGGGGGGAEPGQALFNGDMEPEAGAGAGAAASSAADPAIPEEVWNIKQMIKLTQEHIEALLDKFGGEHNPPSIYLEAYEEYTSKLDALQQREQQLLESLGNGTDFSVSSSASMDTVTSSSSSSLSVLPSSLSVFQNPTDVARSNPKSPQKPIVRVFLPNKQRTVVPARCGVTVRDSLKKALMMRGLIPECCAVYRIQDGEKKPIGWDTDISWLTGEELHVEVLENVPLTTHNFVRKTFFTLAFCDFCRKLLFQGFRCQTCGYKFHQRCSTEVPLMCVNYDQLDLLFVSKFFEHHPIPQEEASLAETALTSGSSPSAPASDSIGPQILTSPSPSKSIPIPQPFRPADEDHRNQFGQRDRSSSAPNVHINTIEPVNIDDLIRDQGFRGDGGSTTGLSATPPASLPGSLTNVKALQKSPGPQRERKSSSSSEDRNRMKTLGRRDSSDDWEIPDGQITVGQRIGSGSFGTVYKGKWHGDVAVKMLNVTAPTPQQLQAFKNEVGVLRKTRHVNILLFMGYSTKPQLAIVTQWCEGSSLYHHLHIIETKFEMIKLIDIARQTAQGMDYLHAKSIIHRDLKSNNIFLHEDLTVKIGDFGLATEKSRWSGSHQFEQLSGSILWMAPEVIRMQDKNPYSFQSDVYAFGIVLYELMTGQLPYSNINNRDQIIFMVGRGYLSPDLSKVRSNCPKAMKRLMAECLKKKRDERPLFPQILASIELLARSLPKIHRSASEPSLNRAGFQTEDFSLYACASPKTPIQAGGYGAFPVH

Row | Structure (SMILES) | IC50 [1] | IC50 [2] | further results
1 | CCCS(=O)(=O)Nc1ccc(F)c(C(=O)Nc2cnc3cc(C(F)(F)F)nn3c2)c1F | 126 nM | 374 nM | 
2 | CCCS(=O)(=O)Nc1ccc(F)c(C(=O)Nc2cnc3cc(-c4cccnc4)nn3c2)c1F | 13 nM | 27 nM | 
3 | CCCS(=O)(=O)Nc1ccc(F)c(C(=O)Nc2cnc3ccnn3c2)c1F | 247 nM | 488 nM | 
4 | CCCS(=O)(=O)Nc1ccc(F)c(C(=O)Nc2cnc3cc(OCC)nn3c2)c1F | 83 nM | 205 nM | 
5 | CCCS(=O)(=O)Nc1ccc(F)c(C(=O)Nc2cnc3nccn3c2)c1F | > 10000 nM |  | 
6 | CCCS(=O)(=O)Nc1ccc(F)c(C(=O)Nc2cnc3cc(-c4cccc(F)c4)nn3c2)c1F | 19 nM | 60 nM | 
7 | CCCS(=O)(=O)Nc1ccc(F)c(C(=O)Nc2cnc3cc(C4CC4)nn3c2)c1F | 124 nM | 299 nM | 
8 | CCCS(=O)(=O)Nc1ccc(F)c(C(=O)Nc2cnc3cc(C)nn3c2)c1F | 131 nM | 248 nM | 
9 | CCCS(=O)(=O)Nc1ccc(F)c(C(=O)Nc2cnc3cc(N4CCCC4)nn3c2)c1F |  | 664 nM | 
10 | CCCS(=O)(=O)Nc1ccc(F)c(C(=O)Nc2cnc3[nH]nc(OC)c3c2)c1F | 5 nM |  | solubility [3]: 3 µg/mL (≈ 7.05 µM); AUC [4]: 105 µM·h; clearance [5]: 1.3 mL/min/kg; Vd [6]: 0.11 L/kg; AUC [7]: 426 µM·h
11 | CCCS(=O)(=O)Nc1ccc(F)c(C(=O)Nc2cnc3cc(C4CCCC4)nn3c2)c1F | 128 nM | 448 nM | 
12 | CCCS(=O)(=O)Nc1ccc(F)c(C(=O)Nc2cnc3cc(OC)nn3c2)c1F | 43 nM | 68 nM | solubility (physchem [8]): 32 µg/mL (≈ 75.2 µM); solubility [3]: 18 µg/mL (≈ 42.3 µM); solubility (physchem [9]): 21 µg/mL (≈ 49.4 µM); AUC [4]: 844 µM·h; clearance [5]: 1 mL/min/kg; Papp (in vitro): 2 ×10⁻⁶ cm/s; bioavailability [10]: 98%; Vd [6]: 0.16 L/kg; AUC [7]: 733 µM·h
13 | CCCS(=O)(=O)Nc1ccc(F)c(C(=O)Nc2cnc3cc(OC(C)C)nn3c2)c1F | 149 nM | 449 nM | 
14 | CCCS(=O)(=O)Nc1ccc(F)c(C(=O)Nc2cnc3occc3c2)c1F | > 10000 nM |  | 
15 | CCCS(=O)(=O)Nc1ccc(F)c(C(=O)Nc2cnc3ccccc3c2)c1F | 464 nM | 1380 nM | 
16 | CCCS(=O)(=O)Nc1ccc(F)c(C(=O)Nc2cnc3cc(CC)nn3c2)c1F | 105 nM | 228 nM | 
17 | CCCS(=O)(=O)Nc1ccc(F)c(C(=O)Nc2cnc3cc[nH]c3c2)c1F | 407 nM | 1510 nM | 
18 | CCCS(=O)(=O)Nc1ccc(F)c(C(=O)Nc2cnc3cc(OCCOC)nn3c2)c1F | 67 nM | 110 nM | 
19 | CCCS(=O)(=O)Nc1ccc(F)c(C(=O)Nc2cnc3cc(-c4cnn(C)c4)nn3c2)c1F | 13 nM | 48 nM | 
20 | CCCS(=O)(=O)Nc1ccc(F)c(C(=O)Nc2cnc3cc(N4CCOCC4)nn3c2)c1F | 174 nM | 315 nM | 
21 | CCCS(=O)(=O)Nc1ccc(F)c(C(=O)Nc2cnc3cc(-c4ccc(F)cc4)nn3c2)c1F | 11 nM | 54 nM | 
22 | CCCS(=O)(=O)Nc1ccc(F)c(C(=O)Nc2cnc3cc(NC(C)C)nn3c2)c1F | 190 nM | 395 nM | 
23 | CCCS(=O)(=O)Nc1ccc(F)c(C(=O)Nc2cnc3cc(NC)nn3c2)c1F | 129 nM | 382 nM | 
